Laboratory results: publication PMC5556071, “ATR inhibition facilitates targeting of leukemia dependence on convergent nucleotide biosynthetic pathways” (Nature Communications, 2017)
pIC50: −log10 of the molar value. Read-outs that look alike come from different tables or passages of the source.

Experiments:
Format in all cases: cell-based, human
CEM cells [1] = assay: Cell cycle analysis of asynchronous cells by flow cytometry (S-phase population, S-phase arrest); settings: CEM, 24 h
Procedure: Cell cycle histograms. Cells were plated at a density of 0.5 x 10^6 cells/mL in respective media or drug treated media. Following 24 h incubation, cells were harvested and washed twice with PBS twice before staining with 0.5 ml of propidium iodide (Calbiochem, #P3566, 1 µg/mL) solution containing Ribonuclease A and 0.3% Triton-X 100. The samples were protected from light before acquisition by flow cytometry.
Cell cycle kinetics and cell cycle progression by intracellular detection of DNA-incorporated 5-ethynyl-2-deoxyuridine (EdU). CEM T-ALL cells were plated at a density of 0.5 x 10^6 cells/mL. Cells were pulsed with 10 µM EdU (Invitrogen) for 1 h, washed twice with PBS, and released in fresh media containing 5 µM deoxyribonucleosides, with and without drugs. Cells were collected at different time points following release in fresh media, and then fixed with 4% paraformaldehyde and permeabilized using saponin perm/wash reagent (Invitrogen). Cells were then stained with azide-Alexa Fluor 647 by Click reaction according to manufacturer’s protocol (Invitrogen; Click-iT EdU Flow cytometry kit, #C10634). […]

CEM cells [2] = assay: Proliferation assay (CellTiter-Glo, 72 h)
Procedure: Cells were plated in 384-well plates (1000 cells/well for suspension cell lines and 500 cells/well for adherent cell lines in 30 µl volume). Drugs were serially diluted to the desired concentrations and an equivalent volume of DMSO was added to vehicle control. Ten microliter of the 4× diluted drugs were added to each well. Following 72 h incubation, ATP content was measured using CellTiter-Glo reagent according to manufacturer’s instructions (Promega, CellTiter-Glo Luminescent Cell Viability Assay), and analyzed by SpectraMax luminometer (Molecular Devices). IC50 values, concentrations required to inhibit proliferation by 50% compared to DMSO treated cells, were calculated using Prism 6.0 h (Graphpad Software).

Jurkat cells = assay: Cell cycle histograms (propidium iodide flow cytometry); settings: dCKi 1 µM, 24 h
Procedure: Cell cycle histograms. Cells were plated at a density of 0.5 x 10^6 cells/mL in respective media or drug treated
media. Following 24 h incubation, cells were harvested and washed twice with PBS twice before staining with
0.5 ml of propidium iodide (Calbiochem, #P3566, 1 µg/mL) solution containing Ribonuclease A and 0.3%
Triton-X 100. The samples were protected from light before acquisition by flow cytometry. […]

[3] = Suppl. Fig. 5e, BCX-1777 100 nM

Row | Compound | fold higher concentration than 3-AP required to induce S-phase arrest (CEM cells [1]) | pIC50 (CEM cells [2]) | other results
1 | Cc1occc(=O)c1[O-].Cc1occc(=O)c1[O-].Cc1occc(=O)c1[O-].[Ga+3] [GaM, gallium maltolate] | 60–100 fold | 4.30 | 
2 | Cc1cn([C@H]2C[C@H](O)[C@@H](CO)O2)c(=O)[nH]c1=O [dT, thymidine] | 60–100 fold |  | pIC50 (CEM cells [2]; Homo sapiens, CCRF-CEM): 3.80
3 | O=c1[nH]cnc2c([C@@H]3N[C@H](CO)[C@@H](O)[C@H]3O)c[nH]c12 [BCX-1777, forodesine] |  |  | cells in G2/M (Jurkat cells; [3]): 1.4%; cells in S phase (Jurkat cells; [3]): 40%
4 | NC(=O)NO [HU, hydroxyurea] | 60–100 fold | 4.13 | 
5 | OC[C@H]1O[C@@H](n2cnc3c2NC=NC[C@H]3O)C[C@@H]1O [dCF, Pentostatin] |  |  | cells in G2/M (Jurkat cells; Suppl. Fig. 4e, dCF 10 µM): 6%; cells in S phase (Jurkat cells; Suppl. Fig. 4e, dCF 10 µM): 11%
